Test results from the supplement of paper PMC10307832.

Each cell line was assayed with CC1CC(=O)N(C2=CN=C(N=C2N1C3CCCC3)NC4=C(C=C(C=C4)C(=O)NC5CCN(CC5)C)OC)C [NPK76-II-72-1] (assay: relative viability (nuclei count vs DMSO), 5 days (fraction); higher = more cells survive). Details: 0.01 µM.
Procedure, shortened: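 Vehicle-anchored 1536-well plates of lung cancer cell lines, held overnight at 37 °C, were pinned with five library-drug doses (not always all listed) spaced by √10. No medium change followed over the next 5 days, after which the cells were fixed, permeabilised and Hoechst-stained together and imaged at 4×. Nuclei were counted with MetaXpress, and viability is treated-well nuclei over vehicle-well nuclei, taken as a median across plates. Plates passed with control CV below 25% and at least one doubling.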

| Cell Line | relative viability |
| --- | --- |
| 201T | 0.973 |
| NCI-H1915 | 0.984 |
| HCC-827 | 1.04 |
| LXF-289 | 0.954 |
| NCI-H23 | 0.944 |
| NCI-H1299 | 1 |
| NCI-H647 | 0.886 |
| CAL-12T | 0.933 |
| NCI-H1651 | 0.953 |
| EPLC-272H | 0.96 |
| NCI-H2228 | 0.945 |
| NCI-H1792 | 0.874 |
| NCI-H1355 | 0.933 |
| NCI-H3122 | 0.97 |
| NCI-H1437 | 0.981 |
| NCI-H1755 | 0.97 |
| NCI-H2023 | 0.904 |
| HCC-15 | 0.939 |
| NCI-H1793 | 0.76 |
| PC-14 | 0.94 |
| EKVX | 0.946 |
| LC-2-ad | 1.01 |
| NCI-H1563 | 0.949 |
| NCI-H1944 | 0.931 |
| NCI-H1975 | 0.963 |
| RERF-LC-KJ | 0.959 |
| ABC-1 | 0.759 |
| NCI-H358 | 0.9 |
| NCI-H650 | 0.971 |
| PC-3 [JPC-3] | 1.02 |

Same assay, conditions: 0.03162 µM

| Cell Line | relative viability |
| --- | --- |
| 201T | 1 |
| NCI-H1915 | 1.1 |
| HCC-827 | 1.04 |
| LXF-289 | 1.02 |
| NCI-H23 | 1.06 |
| NCI-H1299 | 1.03 |
| NCI-H647 | 0.971 |
| CAL-12T | 1.02 |
| NCI-H1651 | 0.939 |
| EPLC-272H | 0.951 |
| NCI-H2228 | 0.974 |
| NCI-H1792 | 0.895 |
| NCI-H1355 | 0.976 |
| NCI-H3122 | 1.01 |
| NCI-H1437 | 0.972 |
| NCI-H1755 | 0.998 |
| NCI-H2023 | 1.05 |
| HCC-15 | 1.1 |
| NCI-H1793 | 1.06 |
| PC-14 | 1.05 |
| EKVX | 0.938 |
| LC-2-ad | 0.996 |
| NCI-H1563 | 0.978 |
| NCI-H1944 | 0.974 |
| NCI-H1975 | 0.942 |
| RERF-LC-KJ | 1.01 |
| ABC-1 | 0.886 |
| NCI-H358 | 0.976 |
| NCI-H650 | 0.946 |
| PC-3 [JPC-3] | 1.11 |

Same assay, conditions: 0.1 µM

| Cell Line | relative viability |
| --- | --- |
| 201T | 0.958 |
| NCI-H1915 | 1 |
| HCC-827 | 1.07 |
| LXF-289 | 0.968 |
| NCI-H23 | 0.854 |
| NCI-H1299 | 1.01 |
| NCI-H647 | 1.01 |
| CAL-12T | 1.01 |
| NCI-H1651 | 0.925 |
| EPLC-272H | 1.06 |
| NCI-H2228 | 1.08 |
| NCI-H1792 | 0.906 |
| NCI-H1355 | 0.987 |
| NCI-H3122 | 0.988 |
| NCI-H1437 | 0.952 |
| NCI-H1755 | 1 |
| NCI-H2023 | 1.07 |
| HCC-15 | 0.988 |
| NCI-H1793 | 1.15 |
| PC-14 | 0.992 |
| EKVX | 0.953 |
| LC-2-ad | 0.952 |
| NCI-H1563 | 1 |
| NCI-H1944 | 0.92 |
| NCI-H1975 | 0.954 |
| RERF-LC-KJ | 0.986 |
| ABC-1 | 0.686 |
| NCI-H358 | 1.01 |
| NCI-H650 | 0.927 |
| PC-3 [JPC-3] | 0.945 |

Same assay, conditions: 0.3162 µM

| Cell Line | relative viability |
| --- | --- |
| 201T | 0.988 |
| NCI-H1915 | 0.882 |
| HCC-827 | 1.03 |
| LXF-289 | 1.04 |
| NCI-H23 | 0.957 |
| NCI-H1299 | 1.01 |
| NCI-H647 | 1.03 |
| CAL-12T | 0.927 |
| NCI-H1651 | 0.979 |
| EPLC-272H | 0.86 |
| NCI-H2228 | 0.883 |
| NCI-H1792 | 0.857 |
| NCI-H1355 | 0.92 |
| NCI-H3122 | 1 |
| NCI-H1437 | 0.964 |
| NCI-H1755 | 0.979 |
| NCI-H2023 | 0.941 |
| HCC-15 | 0.93 |
| NCI-H1793 | 0.741 |
| PC-14 | 0.997 |
| EKVX | 0.713 |
| LC-2-ad | 1 |
| NCI-H1563 | 0.94 |
| NCI-H1944 | 0.921 |
| NCI-H1975 | 0.931 |
| RERF-LC-KJ | 0.889 |
| ABC-1 | 0.955 |
| NCI-H650 | 0.734 |
| PC-3 [JPC-3] | 1.08 |

Same assay, conditions: 1 µM

| Cell Line | relative viability |
| --- | --- |
| 201T | 1.03 |
| NCI-H1915 | 0.996 |
| HCC-827 | 1.06 |
| LXF-289 | 0.988 |
| NCI-H23 | 1.11 |
| NCI-H1299 | 1.02 |
| NCI-H647 | 1.06 |
| CAL-12T | 1.15 |
| NCI-H1651 | 1.02 |
| EPLC-272H | 1.07 |
| NCI-H2228 | 1.06 |
| NCI-H1792 | 1.04 |
| NCI-H1355 | 1.02 |
| NCI-H3122 | 1 |
| NCI-H1437 | 1.01 |
| NCI-H1755 | 1.02 |
| NCI-H2023 | 0.96 |
| HCC-15 | 1.01 |
| NCI-H1793 | 0.915 |
| PC-14 | 1.04 |
| EKVX | 1.21 |
| LC-2-ad | 0.978 |
| NCI-H1563 | 0.982 |
| NCI-H1944 | 1.08 |
| NCI-H1975 | 1.02 |
| RERF-LC-KJ | 1.06 |
| ABC-1 | 0.855 |
| NCI-H358 | 1.05 |
| NCI-H650 | 1.01 |
